Laboratory results reported in patent US9050341B2, “Methods of treating drug resistant and other tumors by administering 6,7-dialkoxy quinazoline derivatives” (NATCO PHARMA LIMITED, priority 2009, dated 2015).

What was measured:
Test in all cases: KinomeScan kinase profiling
Format in all cases: binding
[1] = target: T1, ABL1 (E255K) (Homo sapiens, UniProt P00519, E255K)
T1 construct: host or cells: E. coli host derived from BL21 (T7 phage lysate)
Summary of the method: (§1)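 Kinases were expressed as T7 phage fusions in a BL21-derived E. coli host and the cleared lysates were used. Ligand beads were blocked with biotin and buffer (1% BSA, 0.05% Tween 20, 1 mM DTT). Compounds came from 40× DMSO stocks, and phage in the eluates was titred by qPCR.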

[2] = target: T2, CSNK1E (Homo sapiens, UniProt P49674)
T2 construct: host or cells: T7 phage in E. coli (BL21-derived)
Summary of the method: as §1

[3] = target: T3, EPHA5 (Homo sapiens, UniProt P54756)
T3 construct: host or cells: E. coli host derived from BL21, T7 phage lysate
Summary of the method: as §1

[4] = target: T4, EPHA8 (Homo sapiens, UniProt P29322)
T4 construct: host or cells: E. coli host derived from BL21, T7 phage lysate
Summary of the method: as §1

[5] = target: T5, FLT3 (D835Y) (Homo sapiens, UniProt P36888, D835Y)
T5 construct: host or cells: E. coli host derived from BL21, infected with T7 phage
Summary of the method: as §1

[6] = target: T6, FLT3 (N8411) (Homo sapiens, UniProt P36888, N841I)
T6 construct: host or cells: E. coli host derived from BL21, infected with T7 phage
Summary of the method: as §1

[7] = target: T7, MST1 (Homo sapiens, UniProt Q13043)
T7 construct: host or cells: T7 phage in E. coli host derived from BL21
Summary of the method: as §1

[8] = target: T8, NEK1 (Homo sapiens, UniProt Q96PY6)
T8 construct: host or cells: T7 phage in E. coli host derived from BL21
Summary of the method: as §1

[9] = target: T9, PAK7 (Homo sapiens, UniProt Q9P286)
T9 construct: host or cells: E. coli host derived from the BL21 strain, infected with T7 phage
Summary of the method: as §1

[10] = target: T10, PHKG1 (Homo sapiens, UniProt Q16816)
T10 construct: host or cells: E. coli host derived from the BL21 strain, infected with T7 phage
Summary of the method: as §1

[11] = target: T11, PIK3CD (Homo sapiens, UniProt O00329)
T11 construct: purchased Ambit Biosciences Corp (KinomeScan); host or cells: E. coli host derived from BL21, infected with T7 phage
Summary of the method: as §1

[12] = target: T12, PIM1 (Homo sapiens, UniProt P11309)
T12 construct: purchased Ambit Biosciences Corp (KinomeScan); host or cells: E. coli host derived from BL21, infected with T7 phage
Summary of the method: as §1

[13] = target: T13, PRKG1 (Homo sapiens, UniProt Q13976)
T13 construct: purchased Ambit Biosciences Corp (KinomeScan); host or cells: E. coli host derived from BL21, infected with T7 phage
Summary of the method: as §1

[14] = target: T14, RPS6KA1 (Kin.Dom.-1-N-terminal) (Homo sapiens, UniProt Q15418)
T14 construct: RPS6KA1 (Kin.Dom.-1-N-terminal); host or cells: E. coli host derived from BL21, T7 phage lysate
Summary of the method: as §1

[15] = target: T15, RPS6KA5 (Kin.Dom.-1-N-terminal) (Homo sapiens, UniProt O75582)
T15 construct: RPS6KA5 (Kin.Dom.-1-N-terminal); host or cells: E. coli host derived from BL21, T7 phage lysate
Summary of the method: as §1

[16] = target: T16, RPS6KA5 (Kin.Dom.-2-C-terminal) (Homo sapiens, UniProt O75582)
T16 construct: RPS6KA5 (Kin.Dom.-2-C-terminal); host or cells: E. coli host derived from BL21, T7 phage lysate
Summary of the method: as §1

[17] = target: T17, SIK (Homo sapiens, UniProt P57059)
T17 construct: host or cells: E. coli host derived from the BL21 strain, T7 phage lysate
Summary of the method: as §1

[18] = target: T18, SRC (Homo sapiens, UniProt P12931)
T18 construct: host or cells: E. coli host derived from the BL21 strain, T7 phage lysate
Summary of the method: as §1

[19] = target: T19, SYK (Homo sapiens, UniProt P43405)
T19 construct: host or cells: E. coli host derived from the BL21 strain, T7 phage lysate
Summary of the method: as §1

[20] = target: T20, TTK (Homo sapiens, UniProt P33981)
T20 construct: purchased Ambit Biosciences Corp (KinomeScan); host or cells: E. coli host derived from the BL21 strain (T7 phage lysate)
Summary of the method: as §1

[21] = target: T21, YANK3 (Homo sapiens, UniProt Q86UX6)
T21 construct: purchased Ambit Biosciences Corp (KinomeScan); host or cells: E. coli host derived from the BL21 strain (T7 phage lysate)
Summary of the method: as §1

T13 sequence (Q13976 whole entry): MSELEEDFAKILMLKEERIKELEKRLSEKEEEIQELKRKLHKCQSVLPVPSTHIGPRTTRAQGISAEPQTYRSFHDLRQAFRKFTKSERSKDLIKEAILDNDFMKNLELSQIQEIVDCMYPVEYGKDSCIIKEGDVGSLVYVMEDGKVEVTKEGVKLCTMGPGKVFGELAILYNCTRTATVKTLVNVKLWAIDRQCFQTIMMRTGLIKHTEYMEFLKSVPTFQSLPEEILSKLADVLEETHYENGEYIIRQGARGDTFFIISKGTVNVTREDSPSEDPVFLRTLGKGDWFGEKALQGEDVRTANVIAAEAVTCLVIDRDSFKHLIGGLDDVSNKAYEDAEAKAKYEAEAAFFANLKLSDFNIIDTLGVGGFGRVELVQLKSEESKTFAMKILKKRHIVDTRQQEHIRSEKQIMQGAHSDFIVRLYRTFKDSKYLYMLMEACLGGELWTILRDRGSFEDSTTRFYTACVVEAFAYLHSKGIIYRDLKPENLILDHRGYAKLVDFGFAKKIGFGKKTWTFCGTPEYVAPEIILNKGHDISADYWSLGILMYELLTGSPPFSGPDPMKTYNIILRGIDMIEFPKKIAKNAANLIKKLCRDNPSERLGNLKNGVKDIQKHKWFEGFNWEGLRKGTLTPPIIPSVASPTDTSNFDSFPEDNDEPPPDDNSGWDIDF
T14 sequence (Q15418 62-321 limits assumed): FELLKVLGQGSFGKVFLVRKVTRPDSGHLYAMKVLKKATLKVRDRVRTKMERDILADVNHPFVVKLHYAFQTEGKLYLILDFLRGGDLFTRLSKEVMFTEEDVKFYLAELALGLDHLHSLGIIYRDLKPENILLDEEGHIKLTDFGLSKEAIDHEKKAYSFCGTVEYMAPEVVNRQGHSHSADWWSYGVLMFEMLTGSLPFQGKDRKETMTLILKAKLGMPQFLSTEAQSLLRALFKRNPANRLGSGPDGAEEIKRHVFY
T9 sequence (Q9P286 whole entry): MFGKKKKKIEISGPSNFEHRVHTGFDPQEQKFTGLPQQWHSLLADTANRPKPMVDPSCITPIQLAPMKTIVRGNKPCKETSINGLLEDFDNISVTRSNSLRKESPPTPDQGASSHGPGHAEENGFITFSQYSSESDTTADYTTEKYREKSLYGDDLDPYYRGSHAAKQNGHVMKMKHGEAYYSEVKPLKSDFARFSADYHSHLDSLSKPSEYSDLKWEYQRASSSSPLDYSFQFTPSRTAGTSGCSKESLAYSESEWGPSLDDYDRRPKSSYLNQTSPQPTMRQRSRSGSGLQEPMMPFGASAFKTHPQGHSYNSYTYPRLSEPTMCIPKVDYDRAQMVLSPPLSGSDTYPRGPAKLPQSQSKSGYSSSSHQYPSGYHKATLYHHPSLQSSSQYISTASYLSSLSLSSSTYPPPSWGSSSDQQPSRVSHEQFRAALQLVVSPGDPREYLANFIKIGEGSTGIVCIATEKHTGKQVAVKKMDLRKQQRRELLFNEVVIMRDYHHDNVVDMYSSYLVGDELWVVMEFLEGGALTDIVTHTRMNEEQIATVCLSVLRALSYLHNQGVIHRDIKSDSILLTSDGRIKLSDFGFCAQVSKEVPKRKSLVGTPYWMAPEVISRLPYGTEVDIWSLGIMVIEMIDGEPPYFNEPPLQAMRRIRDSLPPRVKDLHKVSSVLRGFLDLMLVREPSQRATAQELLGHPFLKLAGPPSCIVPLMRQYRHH
T4 sequence (P29322 28-1005): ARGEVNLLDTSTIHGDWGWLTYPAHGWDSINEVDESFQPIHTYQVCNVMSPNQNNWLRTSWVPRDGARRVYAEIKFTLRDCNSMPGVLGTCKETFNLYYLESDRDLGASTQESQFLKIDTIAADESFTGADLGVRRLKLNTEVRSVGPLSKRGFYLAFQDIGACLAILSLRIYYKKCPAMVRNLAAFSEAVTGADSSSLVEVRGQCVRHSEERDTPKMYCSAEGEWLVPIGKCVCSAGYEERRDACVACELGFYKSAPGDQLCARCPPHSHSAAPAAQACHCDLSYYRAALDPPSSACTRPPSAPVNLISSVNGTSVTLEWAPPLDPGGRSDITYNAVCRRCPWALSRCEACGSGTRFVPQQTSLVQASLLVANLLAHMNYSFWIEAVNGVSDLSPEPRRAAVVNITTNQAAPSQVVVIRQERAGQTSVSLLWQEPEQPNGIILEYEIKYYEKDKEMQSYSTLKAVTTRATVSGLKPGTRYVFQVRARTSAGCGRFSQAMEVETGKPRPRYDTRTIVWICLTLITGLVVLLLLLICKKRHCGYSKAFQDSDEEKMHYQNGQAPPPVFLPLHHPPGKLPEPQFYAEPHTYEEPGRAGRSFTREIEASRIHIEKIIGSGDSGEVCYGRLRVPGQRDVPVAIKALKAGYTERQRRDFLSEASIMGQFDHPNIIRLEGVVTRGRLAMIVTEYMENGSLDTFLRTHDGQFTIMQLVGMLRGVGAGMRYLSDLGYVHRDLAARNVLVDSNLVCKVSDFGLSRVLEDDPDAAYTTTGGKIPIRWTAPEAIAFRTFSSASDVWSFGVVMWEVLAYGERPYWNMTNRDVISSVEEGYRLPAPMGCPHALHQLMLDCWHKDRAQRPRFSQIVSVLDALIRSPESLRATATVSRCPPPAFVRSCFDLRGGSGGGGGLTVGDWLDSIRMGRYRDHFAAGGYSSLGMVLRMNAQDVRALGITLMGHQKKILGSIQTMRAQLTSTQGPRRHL
T15 sequence (O75582 49-318 limits assumed): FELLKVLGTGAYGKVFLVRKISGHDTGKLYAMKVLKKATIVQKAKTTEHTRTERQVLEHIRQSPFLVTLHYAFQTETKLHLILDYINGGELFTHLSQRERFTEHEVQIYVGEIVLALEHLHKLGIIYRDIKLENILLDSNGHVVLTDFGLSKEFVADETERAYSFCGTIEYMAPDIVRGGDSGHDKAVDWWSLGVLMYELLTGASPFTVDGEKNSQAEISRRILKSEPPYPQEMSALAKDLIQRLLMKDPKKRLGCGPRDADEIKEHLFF
T20 sequence (P33981 whole entry): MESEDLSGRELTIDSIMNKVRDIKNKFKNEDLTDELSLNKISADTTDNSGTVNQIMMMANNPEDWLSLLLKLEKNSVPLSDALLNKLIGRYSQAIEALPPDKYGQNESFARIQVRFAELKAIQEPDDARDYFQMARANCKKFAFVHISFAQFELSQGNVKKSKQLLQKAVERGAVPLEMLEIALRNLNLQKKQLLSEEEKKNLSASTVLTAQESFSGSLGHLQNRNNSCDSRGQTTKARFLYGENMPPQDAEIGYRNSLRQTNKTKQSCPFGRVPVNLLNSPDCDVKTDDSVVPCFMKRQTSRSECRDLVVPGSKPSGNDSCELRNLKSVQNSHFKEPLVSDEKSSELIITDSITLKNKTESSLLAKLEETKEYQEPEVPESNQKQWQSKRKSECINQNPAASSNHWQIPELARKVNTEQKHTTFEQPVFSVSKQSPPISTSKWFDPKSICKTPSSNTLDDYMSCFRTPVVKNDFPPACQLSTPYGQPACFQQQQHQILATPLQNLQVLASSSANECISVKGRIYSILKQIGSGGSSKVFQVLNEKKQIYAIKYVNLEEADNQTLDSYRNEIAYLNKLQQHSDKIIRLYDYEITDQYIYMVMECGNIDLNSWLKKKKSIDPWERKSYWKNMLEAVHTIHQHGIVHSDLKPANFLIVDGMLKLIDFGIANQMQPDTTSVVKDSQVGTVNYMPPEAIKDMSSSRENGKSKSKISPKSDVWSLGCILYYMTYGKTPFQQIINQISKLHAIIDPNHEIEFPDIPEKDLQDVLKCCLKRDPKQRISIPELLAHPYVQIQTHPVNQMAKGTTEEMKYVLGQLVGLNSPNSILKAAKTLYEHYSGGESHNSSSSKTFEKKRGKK
T3 sequence (P54756 25-1037): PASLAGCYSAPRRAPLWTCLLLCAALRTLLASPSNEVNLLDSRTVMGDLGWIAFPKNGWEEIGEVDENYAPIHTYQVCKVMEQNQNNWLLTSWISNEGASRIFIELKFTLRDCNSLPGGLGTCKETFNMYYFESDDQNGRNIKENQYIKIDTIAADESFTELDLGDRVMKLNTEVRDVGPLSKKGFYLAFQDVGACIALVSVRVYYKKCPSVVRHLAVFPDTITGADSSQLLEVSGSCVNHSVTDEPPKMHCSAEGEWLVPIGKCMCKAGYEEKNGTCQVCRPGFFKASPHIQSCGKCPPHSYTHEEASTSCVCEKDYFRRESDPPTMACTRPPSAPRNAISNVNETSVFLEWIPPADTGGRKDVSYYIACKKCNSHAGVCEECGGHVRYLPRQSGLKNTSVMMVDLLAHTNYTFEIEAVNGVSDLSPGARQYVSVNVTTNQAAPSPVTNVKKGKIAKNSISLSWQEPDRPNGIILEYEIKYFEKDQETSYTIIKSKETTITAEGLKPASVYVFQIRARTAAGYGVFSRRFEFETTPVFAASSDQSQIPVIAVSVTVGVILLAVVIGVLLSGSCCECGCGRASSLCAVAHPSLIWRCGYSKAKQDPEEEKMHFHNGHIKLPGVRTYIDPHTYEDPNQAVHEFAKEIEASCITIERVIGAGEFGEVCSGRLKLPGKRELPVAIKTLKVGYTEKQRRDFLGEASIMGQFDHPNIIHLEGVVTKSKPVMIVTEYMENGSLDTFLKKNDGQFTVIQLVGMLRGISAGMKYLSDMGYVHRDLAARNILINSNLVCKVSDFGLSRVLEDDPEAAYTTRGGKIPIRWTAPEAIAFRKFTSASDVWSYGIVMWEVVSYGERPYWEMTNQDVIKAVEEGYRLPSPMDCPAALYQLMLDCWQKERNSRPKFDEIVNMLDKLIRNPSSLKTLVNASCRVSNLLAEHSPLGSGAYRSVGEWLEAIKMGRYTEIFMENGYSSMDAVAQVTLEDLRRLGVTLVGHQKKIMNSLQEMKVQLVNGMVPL
T16 sequence (O75582 426-687 limits assumed): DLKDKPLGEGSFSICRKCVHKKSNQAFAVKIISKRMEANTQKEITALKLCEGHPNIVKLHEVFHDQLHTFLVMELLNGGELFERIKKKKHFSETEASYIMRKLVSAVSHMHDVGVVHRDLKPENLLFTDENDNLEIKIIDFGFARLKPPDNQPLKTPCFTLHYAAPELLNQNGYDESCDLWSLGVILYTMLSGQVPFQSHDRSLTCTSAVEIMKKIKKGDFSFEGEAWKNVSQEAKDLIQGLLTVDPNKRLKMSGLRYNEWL

## C#Cc1cccc(Nc2ncnc3cc(OC)c(OCCCN4CCOCC4)cc23)c1 [NRC-2694, N-(3-ethylnylphenyl)-7-methoxy-6-[3-(4-morpholinyl)propoxy]-4-quinazolinamine]
[1]
  % Ctrl @ 10000 nM: 80 % Ctrl
[2]
  % Ctrl @ 10000 nM: 9.6 % Ctrl
[3]
  % Ctrl @ 10000 nM: 86 % Ctrl
[4]
  % Ctrl @ 10000 nM: 66 % Ctrl
[5]
  % Ctrl @ 10000 nM: 9.4 % Ctrl
[6]
  % Ctrl @ 10000 nM: 16 % Ctrl
[7]
  % Ctrl @ 10000 nM: 100 % Ctrl
[8]
  % Ctrl @ 10000 nM: 66 % Ctrl
[9]
  % Ctrl @ 10000 nM: 63 % Ctrl
[10]
  % Ctrl @ 10000 nM: 50 % Ctrl
[11]
  % Ctrl @ 10000 nM: 89 % Ctrl
[12]
  % Ctrl @ 10000 nM: 39 % Ctrl
[13]
  % Ctrl @ 10000 nM: 75 % Ctrl
[14]
  % Ctrl @ 10000 nM: 100 % Ctrl
[15]
  % Ctrl @ 10000 nM: 85 % Ctrl
[16]
  % Ctrl @ 10000 nM: 57 % Ctrl
[17]
  % Ctrl @ 10000 nM: 53 % Ctrl
[18]
  % Ctrl @ 10000 nM: 24 % Ctrl
[19]
  % Ctrl @ 10000 nM: 56 % Ctrl
[20]
  % Ctrl @ 10000 nM: 48 % Ctrl
[21]
  % Ctrl @ 10000 nM: 100 % Ctrl
